Molecules are shown by their SMILES. Calls of active or inactive are those of the source. The rule behind the calls is not given here. Where a SMILES comes first, the peptide text is derived from it. [ ]: non-standard residue; d: D form. The star is where a group is joined. Palmitoyl = CCCCCCCCCCCCCCCC(=O)*; βAla = NCCC(=O)O

Holding throughout (assay type): functional, organism-based
The subject of experiment [1] is Influenza A virus. The experiment can be described thus: Antiviral activity against oseltamivir-resistant Influenza A virus (H1N1) LN/1109.
Experiment [2] has as its system Influenza A virus. The experiment in a line: Antiviral activity against oseltamivir-resistant Influenza A virus (H1N1) TJ/15.
For experiment [3], the system named is Influenza A virus. The experiment in a line: Antiviral activity against oseltamivir-resistant Influenza A virus (H1N1) TJ/15 up to 100 uM.

`CCCCCCCCCCCCCCCC(=O)NCCCC[C@H](NC(=O)CCNC(=O)[C@H](CCCCN)NC(=O)[C@H](CCCCN)NC(=O)[C@H](CCC(N)=O)NC(=O)[C@@H](NC(=O)[C@H](CCC(=O)O)NC(=O)[C@H](CCC(=O)O)NC(=O)[C@@H](NC(=O)[C@H](CCCCN)NC(=O)[C@H](CCCCN)NC(=O)[C@H](CCC(N)=O)NC(=O)[C@@H](NC(=O)[C@H](CCC(=O)O)NC(=O)[C@H](CCC(=O)O)NC(=O)[C@@H](NC(=O)[C@H](CCCCN)NC(=O)[C@H](CCCCN)NC(=O)[C@H](CCC(N)=O)NC(=O)[C@@H](NC(=O)[C@H](CCC(=O)O)NC(=O)[C@H](CCC(=O)O)NC(=O)[C@@H](NC(=O)[C@H](CCCCN)NC(=O)[C@H](CCCCN)NC(=O)[C@H](CCC(N)=O)NC(=O)[C@@H](NC(=O)[C@H](CCC(=O)O)NC(=O)[C@H](CCC(=O)O)NC(=O)[C@@H](NC(=O)[C@H](CCCCN)NC(=O)[C@H](CCCCN)NC(=O)[C@H](CCC(N)=O)NC(=O)[C@@H](NC(=O)[C@H](CCC(=O)O)NC(=O)[C@H](CCC(=O)O)NC(=O)[C@@H](NC(C)=O)[C@@H](C)CC)[C@@H](C)CC)[C@@H](C)CC)[C@@H](C)CC)[C@@H](C)CC)[C@@H](C)CC)[C@@H](C)CC)[C@@H](C)CC)[C@@H](C)CC)[C@@H](C)CC)C(N)=O` (Ac-IEEIQKKIEEIQKKIEEIQKKIEEIQKKIEEIQKK[βAla]K(Palmitoyl)-NH2): the results for the EC50 in the experiment with Influenza A virus [1] and with Influenza A virus [2] were 4.36 µM and 3.03 µM, respectively.
On to `CCOC(=O)C1=C[C@@H](OC(CC)CC)[C@H](NC(C)=O)[C@@H](N)C1` [OSELTAMIVIR], for which the EC50 in the experiment with Influenza A virus [1] was found to be 21.7 µM. In addition, the inhibition result in the experiment on Influenza A virus [3] was “inactive”.

Source of the values: ChEMBL document CHEMBL4196194, “De Novo Design of α-Helical Lipopeptides Targeting Viral Fusion Proteins: A Promising Strategy for Relatively Broad-Spectrum Antiviral Drug Discovery” (J Med Chem, 2018).
